This note sets out measurements from patent publication US8147852B2, “Modified azole compounds as antifungal and antibacterial agents” (Barrier Therapeutics, Inc., priority 2006, dated 2012).

Structures are written as SMILES. In brackets after ≈: the same amount, converted by molar mass.

Common to all, as to assay type: cell-based
For one test, the system named is C. albicans. Kind of test: MIC100 against C. albicans strains. As to conditions: Candida albicans, 48 h.
The next test has as its system C. glabrata. Description: MIC100 against C. glabrata strains. As to conditions: Nakaseomyces glabratus, 48 h.
Another test has as its system C. tropicalis. Description: MIC100 against C. tropicalis. As to conditions: Candida tropicalis; C. tropicalis 19596(w.t), wild type; 48 h.

With `Clc1ccc(COC(Cn2ccnc2)c2ccc(Cl)cc2Cl)c(Cl)c1` (stereo not shown) [miconazole], the MIC (as a rule, the lowest concentration that inhibits growth of the organism) stood at 4.17 µM (≈ 1.74 µg/mL) against C. albicans (C. albicans 19457(w.t), wild type); 4.17 µM (≈ 1.74 µg/mL) with C. albicans (C. albicans 19507(r), resistant); 17 µM (≈ 7.07 µg/mL) against C. albicans (C. albicans 20126(r), resistant); 8.3 µM (≈ 3.45 µg/mL) in the test with C. glabrata (C. glabrata 05/1032(r), resistant); 17 µM (≈ 7.07 µg/mL) against C. glabrata (C. glabrata 05/1414(r), resistant); 4.17 µM (≈ 1.74 µg/mL) against C. glabrata (C. glabrata 19371(w.t.), wild type). In addition, inhibition of growth in the test on C. tropicalis (MIC) required 8.3 µM (≈ 3.45 µg/mL).
